US11266662B2, “Ganaxolone for use in prophylaxis and treatment of postpartum depression” (Marinus Pharmaceuticals, Inc., priority 2018, dated 2022)

What was measured:
female rats = experiment: Pulmonary safety pharmacology in female rats; type: in vivo, rat; details: doses up to 40 mg/kg
Experimental: (§1) Safety pharmacology studies were conducted with ganaxolone.

[1] = Cardiovascular safety pharmacology in dogs, single dose; type: in vivo, dog; details: dog, in vivo, single dose of up to 15 mg/kg
Experimental: as §1

dogs = experiment: as above; type: in vivo, dog; details: single dose of up to 15 mg/kg
Experimental: as §1

[2] = Example 3 Phase 2 study of oral ganaxolone in women with PPD: expected plasma concentrations; type: in vivo, human
Experimental: Approximately 172 women aged 18 to 48 years with PPD are screened, and approximately 88 subjects are enrolled into a Phase 2 clinical study. The enrolled subjects are assigned to five groups.
In the first group, approximately 8 subjects are titrated to a total daily oral dose of 900 mg ganaxolone per day (administered in three divided doses per day) over 10 days, followed by a taper over 4 days. For this group ganaxolone doses are titrated from 225 mg on Day 1 to a total daily oral dose of 900 mg starting on Day 7. The ganaxolone mean trough plasma concentrations during the Days 8, 9, and 10 are predicted to be about 40 ng/ml, based on PK modelling. Bedtime doses are selected to be higher than the daytime doses, and are expected to yield plasma mean peak concentrations up to 180 ng/ml during the night on Days 8, 9 and 10.
In the third group, approximately 20 subjects receive ganaxolone administered orally at a dose of 675 mg QHS for 28 days, followed by a taper over 4 days. The trough ganaxolone levels are expected to be below 40 ng/ml.
In the fourth group, approximately 20 subjects receive orally, on the first 2 days, ganaxolone capsules 675 mg at dinner time and 675 mg at bedtime (for a total of 1,350 mg per day on the first 2 days), followed by 26 days of ganaxolone capsules 1,125 mg at dinner time (high fat diet), and a taper over 4 days. […]

For `CC(=O)[C@H]1CC[C@H]2[C@@H]3CC[C@H]4C[C@](C)(O)CC[C@]4(C)[C@H]3CC[C@]12C` [ganaxolone, 3α-hydroxy-3β-methyl-5α-pregnan-20-one], the Pulmonary effects (female rats) was “No pulmonary effects were observed”, the AUC(0-t) ([1]; read-out: AUC(0-24)) was 10000 ng·h/mL and the Cmax ([1]; read-out: Maximum concentration [Cmax]) was 1000 ng/mL. The “Effect on cardiovascular parameters” value (dogs) was “no effect on cardiovascular parameters”, the “Expected plasma mean peak concentrations during the night” value ([2]; first group, Days 8, 9 and 10) was “up to 180 ng/ml” and the “Expected trough ganaxolone levels” value ([2]; third group: 675 mg QHS orally for 28 days) was “below 40 ng/ml”.
